Like-named read-outs stand apart in the source and are kept apart here.
Tests used:
RPE cells = assay: cells; conditions: Homo sapiens, read-out: IC50 on RPE cells
NCI-H522 cells = assay: Time-lapse microscopy of cell death; format: cell-based, human; conditions: for Time from initiation of ferroptosis until most/all cells were dead: CETZOLE-1 20 μM (most of the cells), HY-1 5 μM (all cells); for Start of ferroptosis after treatment: CETZOLE-1 20 μM, HY-1 5 μM
PC-12 cells = assay: MTT cytotoxicity on undifferentiated and differentiated PC-12 cells; format: cell-based; conditions: MTT after 24 h of treatment
SH-SY5Y cells = assay: MTT cell viability assay, SH-SY5Y neuroblastoma cells; format: cell-based, human; conditions: 0.5×, 1×, 2× IC50 of the controls on H522; HY-1 at 2.32 μM
[1] = test system: NCI-60 human tumor cell lines; assay: cells
[2] = test system: HDAC 1, 2, 3, 4, 6, and 8; conditions: recombinant HDAC proteins
PC-3 [3] = assay: cells; conditions: Homo sapiens, PC-3, read-out: GI50, PC-3
IGROV-1 [4] = assay: cells; conditions: Homo sapiens, IGROV-1, read-out: GI50, IGROV-1
[5] = test system: lipid peroxides in NCI-H522 cells; assay: C11-BODIPY lipid peroxidation assay; format: cell-based, human; conditions: NCI-H522, 10 μM, 6 h
LOXIMVI [6] = assay: cells; conditions: Homo sapiens, LOX IMVI, read-out: GI50, LOXIMVI
DU-145 [7] = assay: cells; conditions: Homo sapiens, DU-145, read-out: GI50, DU-145
Class I HDACs = conditions: read-out: IC50 for Class I HDACs; recombinant HDAC proteins
DU-145 [8] = conditions: read-out: GI50, DU-145; five-dose assay; ref public data base of NCI (NSC 759852); cited from earlier work
PC-3 [9] = conditions: read-out: GI50, PC-3; five-dose assay; ref public data base of NCI (NSC 759852); cited from earlier work
RPMI-8226 = conditions: read-out: GI50, RPMI-8226; five-dose assay; ref public data base of NCI (NSC 759852); cited from earlier work
SF-539 cell line = conditions: read-out: GI50, SF-539; five-dose assay; ref public data base of NCI (NSC 759852); cited from earlier work
NCI-H23 = conditions: read-out: GI50, NCI-H23; five-dose assay; ref public data base of NCI (NSC 759852); cited from earlier work
NCI-H23 cell line = conditions: one-dose; ref public data base of NCI (NSC 759852); cited from earlier work
IGROV-1 [10] = conditions: read-out: GI50, IGROV-1; five-dose assay; ref public data base of NCI (NSC 759852); cited from earlier work
LOXIMVI [11] = conditions: read-out: GI50, LOXIMVI; five-dose assay; ref public data base of NCI (NSC 759852); cited from earlier work
HS578 = conditions: read-out: GI50, HS578; five-dose assay; ref public data base of NCI (NSC 759852); cited from earlier work
DU-145 cells = conditions: one-dose; ref public data base of NCI (NSC 759852); cited from earlier work

C#Cc1nc(C2=C(C)[C@@H](O)CC2)cs1 [CETZOLE-1]
IC50 (RPE cells): > 30 µM
Time from initiation of ferroptosis until most/all cells were dead (NCI-H522 cells): ≤ 8 h
Start of ferroptosis after treatment (NCI-H522 cells): approximately 12 h

C#Cc1nc(C(=O)NCCCCCCC(=O)OC)cs1 [FC-1, Methyl 7-(2-Ethynylthiazole-4-carboxamido)heptanoate]
Effect on PC-12 cells (differentiated and undifferentiated) (PC-12 cells): resistant
Effect on neuronal cells (SH-SY5Y viability, neurotoxicity) (SH-SY5Y cells): significant neurotoxicity

O=C(CCCCCCNC(=O)c1csc(Br)n1)NO [HC-1, 2-Bromo-N-(7-(hydroxyamino)-7-oxoheptyl)thiazole-4-carboxamide]
Effect on neuronal cells (SH-SY5Y viability, neurotoxicity) (SH-SY5Y cells): very mild toxicity
GI50 ([1]; read-out: Average GI50): 1.51 µM

O=C(/C=C/C=C/c1csc(Br)n1)NO [HC-4, (2E,4E)-5-(2-Bromothiazol-4-yl)-N-hydroxypenta-2,4-dienamide]
HDAC inhibitory activity [2]: poor HDAC inhibitory activity

C#Cc1nc(C(=O)NCCCCCCC(=O)NO)cs1 [HY-1, 2-Ethynyl-N-(7-(hydroxyamino)-7-oxoheptyl)thiazole-4-carboxamide]
GI50 (PC-3 [3]): 2 µM
GI50 (IGROV-1 [4]): 0.57 µM
Lipid peroxide levels (C11-BODIPY 581/591) [5]: increased levels of lipid peroxides
Effect on PC-12 cells (differentiated and undifferentiated) (PC-12 cells): behaved like the HDAC control HC-1
GI50 (LOXIMVI [6]): 0.02 µM
GI50 (DU-145 [7]): 0.36 µM
Effect on neuronal cells (SH-SY5Y viability, neurotoxicity) (SH-SY5Y cells): no neurotoxic effects
Time from initiation of ferroptosis until most/all cells were dead (NCI-H522 cells): ≤ 2 h
Start of ferroptosis after treatment (NCI-H522 cells): 8 h
GI50 ([1]; read-out: Average GI50): 0.85 µM
GI50 ([1]; read-out: GI50 values as low as (best cell line)): 0.02 µM

C#Cc1nc(/C=C\CCCCCC(=O)NO)cs1 [HY-2, (Z)-8-(2-Ethynylthiazol-4-yl)-N-hydroxyoct-7-enamide]
GI50 ([1]; read-out: Average GI50): 2.18 µM

C#Cc1nc(/C=C/CCCCCC(=O)NO)cs1 [HY-3, (E)-8-(2-Ethynylthiazol-4-yl)-N-hydroxyoct-7-enamide]
GI50 ([1]; read-out: Average GI50): 3.39 µM

C#Cc1nc(/C=C/C=C/C(=O)NO)cs1 [HY-4, (2E,4E)-5-(2-Ethynylthiazol-4-yl)-N-hydroxypenta-2,4-dienamide]
HDAC inhibitory activity [2]: poor HDAC inhibitory activity
Effect on neuronal cells (SH-SY5Y viability, neurotoxicity) (SH-SY5Y cells): not showing attenuated neurotoxicity

C#Cc1nc(/C=C/C(=O)NO)cs1 [HY-5, (E)-3-(2-Ethynylthiazol-4-yl)-N-hydroxyacrylamide]
IC50 (Class I HDACs): 0.89 to 1.1 µM
GI50 ([1]; read-out: Average GI50): 2.47 µM

COC(=O)CCCCCCNC(=O)c1csc(Br)n1 [NC-1, Methyl 7-(2-Bromothiazole-4-carboxamido)heptanoate]
Effect on neuronal cells (SH-SY5Y viability, neurotoxicity) (SH-SY5Y cells): no effect

O=C(CCCCCCC(=O)Nc1ccccc1)NO [SAHA]
GI50 (DU-145 [8]): 1.25 µM
GI50 (PC-3 [9]): 1.58 µM
GI50 (RPMI-8226): 1.5 µM
GI50 (SF-539 cell line): 2 µM
GI50 (NCI-H23): 2 µM
Growth %, NCI-H23 (NCI-H23 cell line): 3.30%
GI50 (IGROV-1 [10]): 2 µM
GI50 (LOXIMVI [11]): 1.25 µM
GI50 (HS578): 2 µM
Time after treatment at which cells were still alive (NCI-H522 cells; SAHA 5 μM): ≥ 60 h
Growth %, DU-145 (DU-145 cells): 3.5%

— PMC10257520 (Journal of medicinal chemistry, 2022)
